Measured values from article PMC8617031, “Development of a BCL-xL and BCL-2 dual degrader with improved anti-leukemic activity,” (Nature Communications, 2021).
Several values for one entry are separate records, joined by “and”; a condition that tells them apart may be missing. Identical values can stand only once. Like-named read-outs stand apart in the source and are kept apart here.

Experiments:
[1] = biological target: T1, His-tagged BCL-2 (Homo sapiens, UniProt P10415); assay: AlphaScreen competitive binary binding, BCL-2 (biotin-BIM peptide); settings: for Alpha signal normalised to Maximum/Minimum (inhibition): in % (unit assumed)
T1 construct: purchased Sigma-Aldrich SRP0186
Experimental: The reagents were diluted in a buffer containing 250 mM HEPES pH 7.5, 1 M NaCl, 1% BSA, and 0.05% Tween-80. His-tagged BCL-xL (0.5 nM, Cat. No. SRP0187, Sigma-Aldrich) or BCL-2 (1 nM, Cat. No. SRP0186, Sigma-Aldrich) were incubated with serial diluted 753a or 753b and 2 nM biotin-tagged BAD (biotin-[…] amino-terminal, AnaSpec, for BCL-xL) or 10 nM BIM peptides (biotin-[…] N-terminal, AnaSpec, for BCL-2) to a final volume of 40 µl in a 96-well PCR plate. […] After incubation for 2 h, 5 µl 6× His-acceptor beads (Cat. No. AL128M, PerkinElmer) were added to each well at 20 µg/ml final concentration and incubated for 1 h. Then 5 µl streptavidin-donor beads were added (Cat. No. 6760002, PerkinElmer) to each well at 20 µg/ml final concentration and incubated for 45 min. At the end of the incubation period, 17 µl of each sample was transferred in adjacent wells of 384-well proxy plate (Cat. No. 6008280, PerkinElmer). The plate was scanned using the Alpha program on Biotek’s Synergy Neo2 multimode plate reader. The inhibition constant (Ki) was calculated using the non-linear regression, one site, competitive binding, Fit Ki function on GraphPad Prism 9 software, based on experimentally determined dissociation constant (Kd) for each protein–peptide pair.

[2] = test system: 293T cells; assay: Viability (MTS) of 293T cells; assay type: cell-based, human; settings: for 293T cell viability, MTS absorbance 490 as percent of control, mean of three wells, left block of Plate 29: mean of 3 wells, Plate 29 normalised with blank 0.332667 and control 0.923167 of Plate 30; for 293T cell viability, MTS absorbance 490 as percent of untreated control, single replicate well: normalised to own plate
Experimental: (§1) Suspension cells were treated 30 min after seeding, whereas adherent cells were allowed to adhere overnight and were then treated. Compound treatments were prepared in complete cell culture medium and 100 µl of 2× treatment-containing medium were added to each well. Complete cell culture medium without treatment was added in control wells, and wells containing medium without cells served as background. The outer wells of the 96-well plate were not used for treatment and were filled with 250 µl of PBS to reduce evaporation of medium from inner wells. Each compound and/or combination was tested at nine different concentrations with three replicates. The cell viability was measured after 72 h by tetrazolium-based MTS assay. MTS reagent (2 mg ml^–1 stock; cat. no. G1111, Promega) was freshly supplemented with phenazine methosulfate (PMS, 0.92 mg ml^–1 stock, cat. no. P9625, Sigma-Aldrich) in 20:1 ratio, and 20 µl of this mixture was added to each control and treatment well. The cells were incubated for 4 h at 37 °C and 5% CO2, and then the absorbance was recorded at 490 nm using Biotek’s Synergy Neo2 multimode plate reader (Biotek). The average absorbance value of background wells was subtracted from absorbance value of each control and treatment well, and percent cell viability ((At/A0) × 100)) was determined in each treatment well, where At is the absorbance value of the treatment well and A0 is the average absorbance value of control wells after background subtraction. The data were expressed as average percentage cell viability and fitted in non-linear regression curves using GraphPad Prism 7 (GraphPad Software, La Jolla, CA, USA).

[3] = test system: Hela cells; assay: Viability (MTS) of Hela cells; assay type: cell-based, human; settings: in % (unit assumed)
Experimental: as §1

[4] = test system: Kasumi-1 cells; assay: Viability (MTS) of Kasumi-1 AML cells; assay type: cell-based, human; settings: Fig. 7c; for Luminescence (raw plate reading): Kasumi, 24h

T1 sequence (P10415 whole entry): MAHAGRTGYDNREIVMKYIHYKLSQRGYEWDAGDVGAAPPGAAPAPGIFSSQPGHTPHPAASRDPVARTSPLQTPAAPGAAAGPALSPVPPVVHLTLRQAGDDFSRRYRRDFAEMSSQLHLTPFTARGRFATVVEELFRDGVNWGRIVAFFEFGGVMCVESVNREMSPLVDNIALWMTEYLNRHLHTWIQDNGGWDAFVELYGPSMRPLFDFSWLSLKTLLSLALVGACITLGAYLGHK

## Cc1ncsc1-c1ccc([C@H](C)NC(=O)[C@@H]2C[C@@H](O)CN2C(=O)[C@@H](NC(=O)CCCCCC(=O)N2CCN(CC[C@H](CSc3ccccc3)Nc3ccc(S(=O)(=O)NC(=O)c4ccc(N5CCN(CC6=C(c7ccc(Cl)cc7)CCC(C)(C)C6)CC5)cc4)cc3S(=O)(=O)C(F)(F)F)CC2)C(C)(C)C)cc1 [DT2216]
[1]; BCL-2 Rep-1, 0.000305176 uM, 0.000305176 µM
  Alpha signal normalised to Maximum/Minimum (inhibition): 11.9513
[1]; BCL-2 Rep-1, 0.000305176 uM, read-out: Alpha signal normalised to Maximum/Minimum (inhibition)
  inhibition at 0.000305176 µM: 15.4%
[1]; BCL-2 Rep-1, 0.00488281 uM, 0.00488281 µM
  Alpha signal normalised to Maximum/Minimum (inhibition): 42.8592
[1]; BCL-2 Rep-1, 0.00488281 uM, read-out: Alpha signal normalised to Maximum/Minimum (inhibition)
  inhibition at 0.00488281 µM: 43%
[1]; BCL-2 Rep-1, 0.0195312 uM, 0.0195312 µM
  Alpha signal normalised to Maximum/Minimum (inhibition): 72.1054
[1]; BCL-2 Rep-1, 0.0195312 uM, read-out: Alpha signal normalised to Maximum/Minimum (inhibition)
  inhibition at 0.0195312 µM: 69.3%
[1]; BCL-2 Rep-1, 0.078125 uM, 0.078125 µM
  Alpha signal normalised to Maximum/Minimum (inhibition): 96.9363
[1]; BCL-2 Rep-1, 0.078125 uM, read-out: Alpha signal normalised to Maximum/Minimum (inhibition)
  inhibition at 0.078125 µM: 96.6%
[1]; BCL-2 Rep-1, 0.3125 uM, 0.3125 µM
  Alpha signal normalised to Maximum/Minimum (inhibition): 99.419
[1]; BCL-2 Rep-1, 0.3125 uM, read-out: Alpha signal normalised to Maximum/Minimum (inhibition)
  inhibition at 0.3125 µM: 100%
[1]; BCL-2 Rep-1, 1.25 uM, 1.25 µM
  Alpha signal normalised to Maximum/Minimum (inhibition): 99.6178
[1]; BCL-2 Rep-1, 1.25 uM, read-out: Alpha signal normalised to Maximum/Minimum (inhibition)
  inhibition at 1.25 µM: 99.6%
[1]; BCL-2 Rep-1, 5 uM, 5 µM
  Alpha signal normalised to Maximum/Minimum (inhibition): 99.391
[1]; BCL-2 Rep-1, 5 uM, read-out: Alpha signal normalised to Maximum/Minimum (inhibition)
  inhibition at 5 µM: 100%
[1]; BCL-2 Rep-2, 0.00488281 uM
  Alpha signal (raw counts): 457290 and 444842
[1]; BCL-2 Rep-2, 0.0195312 uM, 0.0195312 µM
  Alpha signal normalised to Maximum/Minimum (inhibition): 73.927
[1]; BCL-2 Rep-2, 0.0195312 uM, read-out: Alpha signal normalised to Maximum/Minimum (inhibition)
  inhibition at 0.0195312 µM: 72.6%
[1]; BCL-2 Rep-2, 0.078125 uM, 0.078125 µM
  Alpha signal normalised to Maximum/Minimum (inhibition): 98.4863
[1]; BCL-2 Rep-2, 0.078125 uM, read-out: Alpha signal normalised to Maximum/Minimum (inhibition)
  inhibition at 0.078125 µM: 98.1%
[1]; BCL-2 Rep-2, 0.3125 uM, 0.3125 µM
  Alpha signal normalised to Maximum/Minimum (inhibition): 98.9063
[1]; BCL-2 Rep-2, 0.3125 uM, read-out: Alpha signal normalised to Maximum/Minimum (inhibition)
  inhibition at 0.3125 µM: 98.5%
[1]; BCL-2 Rep-2, 1.25 uM, 1.25 µM
  Alpha signal normalised to Maximum/Minimum (inhibition): 100.524
[1]; BCL-2 Rep-2, 1.25 uM, read-out: Alpha signal normalised to Maximum/Minimum (inhibition)
  inhibition at 1.25 µM: 101%
[1]; BCL-2 Rep-2, 5 uM, 5 µM
  Alpha signal normalised to Maximum/Minimum (inhibition): 100.141
[1]; BCL-2 Rep-2, 5 uM, read-out: Alpha signal normalised to Maximum/Minimum (inhibition)
  inhibition at 5 µM: 99.9%
[1]; BCL-2 Rep-2, plate row B, 5 uM
  Alpha signal (raw counts): 15606 and 13933
[1]; BCL-2 Rep-2, plate row C, 1.25 uM
  Alpha signal (raw counts): 9913 and 10759
[1]; BCL-2 Rep-2, plate row D, 0.3125 uM
  Alpha signal (raw counts): 27814 and 24179
[1]; BCL-2 Rep-2, plate row E, 0.078125 uM
  Alpha signal (raw counts): 30701 and 27663
[1]; BCL-2 Rep-2, plate row F, 0.0195312 uM
  Alpha signal (raw counts): 242422 and 231401
[1]; BCL-2 Rep-2, plate row H, 0.0012207 uM
  Alpha signal (raw counts): 765240 and 763074
[1]; BCL-2 Rep-2, plate row I, 0.000305176 uM
  Alpha signal (raw counts): 762866 and 759346
[1]; BCL-2 Rep-2, plate row J, 7.62939e-5 uM
  Alpha signal (raw counts): 726537 and 792609
[1]; BCL-2 Rep-2, plate row K, 1.90735e-5 uM
  Alpha signal (raw counts): 756626 and 814053
[2]; 0.00137174 uM
  293T cell viability, MTS absorbance 490 as percent of control, mean of three wells, left block of Plate 29: 100.343
  293T cell viability, MTS absorbance 490 as percent of untreated control, single replicate well: 104.404 and 98.1429 and 94.4287
[2]; 0.00137174 uM, Plate 29 normalised with blank 0.332667 and control 0.923167 of Plate 30, 0.00137174 µM
  293T cell viability, MTS absorbance 490 as percent of control, single replicate well, left block of Plate 29: 99.4764 and 95.6851
[2]; 0.00411523 uM
  293T cell viability, MTS absorbance 490 as percent of control, mean of three wells, left block of Plate 29: 98.6099
  293T cell viability, MTS absorbance 490 as percent of untreated control, single replicate well: 102.282 and 94.7471 and 94.8532
[2]; 0.00411523 uM, Plate 29 normalised with blank 0.332667 and control 0.923167 of Plate 30, 0.00411523 µM
  293T cell viability, MTS absorbance 490 as percent of control, single replicate well, left block of Plate 29: 96.0101 and 96.1184
[2]; 0.037037 uM
  293T cell viability, MTS absorbance 490 as percent of control, mean of three wells, left block of Plate 29: 101.101
  293T cell viability, MTS absorbance 490 as percent of untreated control, single replicate well: 91.8819 and 102.706
[2]; 0.037037 uM, Plate 29 normalised with blank 0.332667 and control 0.923167 of Plate 30, 0.037037 µM
  293T cell viability, MTS absorbance 490 as percent of control, single replicate well, left block of Plate 29: 93.0854 and 104.134
[2]; 0.111111 uM
  293T cell viability, MTS absorbance 490 as percent of control, mean of three wells, left block of Plate 29: 100.235
  293T cell viability, MTS absorbance 490 as percent of untreated control, single replicate well: 93.8981 and 94.0042
[2]; 0.111111 uM, Plate 29 normalised with blank 0.332667 and control 0.923167 of Plate 30, 0.111111 µM
  293T cell viability, MTS absorbance 490 as percent of control, single replicate well, left block of Plate 29: 95.1435 and 95.2519
[2]; 0.333333 uM
  293T cell viability, MTS absorbance 490 as percent of control, mean of three wells, left block of Plate 29: 99.5125
  293T cell viability, MTS absorbance 490 as percent of untreated control, single replicate well: 110.453 and 97.4001 and 86.682
[2]; 0.333333 uM, Plate 29 normalised with blank 0.332667 and control 0.923167 of Plate 30, 0.333333 µM
  293T cell viability, MTS absorbance 490 as percent of control, single replicate well, left block of Plate 29: 112.042 and 98.7182 and 87.7776
[2]; 1 uM
  293T cell viability, MTS absorbance 490 as percent of control, mean of three wells, left block of Plate 29: 99.007
  293T cell viability, MTS absorbance 490 as percent of untreated control, single replicate well: 109.179 and 101.433 and 82.4372
[2]; 1 uM, Plate 29 normalised with blank 0.332667 and control 0.923167 of Plate 30, 1 µM
  293T cell viability, MTS absorbance 490 as percent of control, single replicate well, left block of Plate 29: 110.742 and 102.834 and 83.4447
[2]; 3 uM
  293T cell viability, MTS absorbance 490 as percent of control, mean of three wells, left block of Plate 29: 87.4526
  293T cell viability, MTS absorbance 490 as percent of untreated control, single replicate well: 92.5186 and 77.1312
[2]; 3 uM, Plate 29 normalised with blank 0.332667 and control 0.923167 of Plate 30, 3 µM
  293T cell viability, MTS absorbance 490 as percent of control, single replicate well, left block of Plate 29: 93.7353 and 78.0285
[3]; MTS absorbance 490, Conc 0.00137174 uM
  cell viability normalised to control wells (single replicate): 91.7776
[3]; MTS absorbance 490, Conc 0.00411523 uM
  cell viability normalised to control wells (single replicate): 92.3987 and 92.7536
[3]; MTS absorbance 490, Conc 0.037037 uM
  cell viability normalised to control wells (single replicate): 98.4324 and 86.0988
[3]; MTS absorbance 490, Conc 0.111111 uM
  cell viability normalised to control wells (single replicate): 97.9 and 88.8495
[3]; MTS absorbance 490, Conc 0.333333 uM
  cell viability normalised to control wells (single replicate): 93.1973 and 104.022
[3]; MTS absorbance 490, Conc 1 uM
  cell viability normalised to control wells (single replicate): 83.5256 and 94.1733
[3]; MTS absorbance 490, Conc 3 uM
  cell viability normalised to control wells (single replicate): 80.7749
[4]; Homo sapiens, Kasumi 1, 72 h, read-out: IC50, viability of Kasumi-1 cells
  IC50: 1150 nM
[4]; 2um (plate column 11)
  Luminescence (raw plate reading): 404633 and 365594 and 354853 and 362278
[4]; 4um (plate column 12)
  Luminescence (raw plate reading): 138608 and 119804 and 124492 and 119916
